# Test results: patent US20260027065A1, “LIVER/ADIPOSE TISSUE DUAL-TARGETING COMPOSITE NANO-DRUG CARRIER” (IUCF-HYU (INDUSTRY-UNIVERSITY COOPERATION FOUNDATION …, priority 2022, published 2026)
# Tested on: animal models of obesity-induced type 2 diabetes
# Test: Treatment effect (body weight, insulin resistance, biomarkers), type 2 diabetes model
# Type: in vivo, C57BL/6J mice
# Conditions: ZnPP 0.25 mg/kg i.p. once a week for 4 weeks together with HO-1 inducer-encapsulated ATS/PLGA NPs 1 mg/kg i.v.; FIG. 9
# Method: C57BL/6J mice were purchased from Orient Bio Inc. and acclimated for one week. From week 3, a 60% kcal high fat diet (HFD, Central Lab Animal, Inc.) was mixed with normal diet and fed. From week 6, only HFD was fed, and HFD was additionally fed for 8 weeks. In week 20, it was confirmed that the body weight reached 45 to 55 g, and the fasting blood glucose level also exceeded 250 mg/dl.
# After constructing the animal models of obesity-induced type 2 diabetes and the animal models of obesity-induced non-alcoholic steatohepatitis, ATS/PLGA NPs in which 1 mg/kg of heme oxygenase-1 inducer was encapsulated were injected intravenously once a week for 4 weeks. Here, the results of a control administered intravenously with ATS/PLGA NPs (vehicle) in which 1 mg/kg of heme oxygenase-1 inducer was not encapsulated once a week for 4 weeks and a control administered intraperitoneally with 0.25 mg/kg of heme oxygenase-1 inhibitor (ZnPP) once a week for 4 weeks while intravenous administration with ATS/PLGA NPs in which 1 mg/kg of heme oxygenase-1 inducer was encapsulated once a week for 4 weeks were compared. The body weight was measured for 7 weeks, and then the mice were dissected to obtain mRNA and proteins from major organs such as the liver and adipose tissue for biomarker analysis.
structure (smiles),measurement,value
C=CC1=C(C)c2cc3[n-]c(cc4[n-]c(cc5nc(cc1n2)C(C)=C5C=C)c(C)c4CCC(=O)O)c(CCC(=O)O)c3C.[Zn+2] [ZnPP],Effect on body weight with co-administered HO-1 inhibitor,no effect
